Reference: patent US20220153746A1, “NITROGEN OXIDE-DONATING PDE-5 AND/OR PDE-6 INHIBITOR COMPOUNDS, AND USES THEREOF” (ILDONG PHARMACEUTICAL CO., LTD., priority 2020, published 2022)
Read-outs that look alike come from different tables or passages of the source.

Assays:
human PDE-5A1 = human PDE-5A1 (Homo sapiens, UniProt O76074); assay: Human PDE-5A1 inhibition assay (fluorescence polarization, FAM-cGMP); type: biochemical; settings: read-out: IC50 (μM) PDE5A1
human PDE-6C = human PDE-6C (Homo sapiens, UniProt P51160); assay: Human PDE-6C inhibition assay (fluorescence polarization, FAM-cGMP); type: biochemical; settings: read-out: IC50 (μM) PDE6C
[1] = PK Phase (Group 2): plasma concentrations and pharmacokinetics of Compound 18 and its metabolite Compound 4 after once daily ocular instillation of Compound 18 nanosuspension for 7 days; type: in vivo, New Zealand white rabbits; settings: for Cmax / Tmax / AUC(0-t) / half-life: male, New Zealand white, rabbit, plasma, topical or ocular, 0.8 mg/kg; for AUC(0-t): read-out: AUC0-24; for Day 1 Compound 4 Plasma Concentration / Day 7 Compound 4 Plasma Concentration: metabolite after Compound 18 dosing
From the text: This example illustrates the procedures and results for the levels of Compound 18 and its metabolite Compound 4 in plasma and ocular tissues of normotensive rabbits following ocular instillation of Compound 18 once daily for 7 consecutive days.
Twenty five (25) male New Zealand white rabbits were divided into 5 groups of varying amounts of animals per group.
The Test article, Compound 18 was formulated as a 2% nanosuspension in DI water containing 0.2% PS80 (polyoxyethylenesorbitan, monooleate (Tween 80)) and 0.4% HPMC (hydroxypropylmethylcellulose) at pH 6.77. Referred to herein as “Compound 18 nanosuspension.”
The study consisted of three groups (Groups 1-3) of 19 male rabbits (NZW) that underwent once daily morning ocular installation (1 eyedrop) for 7 consecutive days (Day 0-6). Groups 4-5 each consisted of 3 male rabbits (NZW) that were not dosed.
Blood samples (1 mL) were collected from the jugular vein at the intervals set out below for each group. The samples were then inverted several times following collection and held on wet ice until centrifuged. Samples were centrifuged within 60 minutes of collection under refrigeration (set at 5° C. for 10 minutes at 2000 g. […]
Plasma and tissue samples from treated animals (Groups 1-3) were analyzed for Compound 18 and its metabolite Compound 4 concentrations by LC-MS/MS.
Pharmacokinetic analysis was conducted using WinNonlin Version 6.2.1 (Pharsight, Mountain View, Calif.), operating as a validated software system. Noncompartmental analysis was conducted using the extravascular administration model for ocular instillation dosing.
The peak plasma concentration, time to achieve peak plasma concentration, half-life, and area under the plasma concentration-time curve (Cmax, Tmax, T1/2, and AUC) were calculated from the PK phase individual animal plasma concentrations for each sampling time/dose group for Compound 18 and its metabolite Compound 4.
BA Assay: Quantitation Range 0.05 to 100 ng/mL for Compound 18, 0.15 to 100 ng/mL for Compound 4.
Plasma calibration standards (PLSTD-A) with Compound 18 concentrations ranging from 0.0500 to 100 ng/mL were prepared by spiking control rabbit plasma with appropriate calibration curve spiking solutions (SS-A). PLQC-A samples with concentrations of 0.150, 5.00, 50.0, and 80.0 ng/mL were prepared by spiking control rabbit plasma with appropriate SS-A-QC spiking solutions.
Plasma calibration standards (PLSTD-B) with Compound 4 concentrations ranging from 0.150 to 100 ng/mL were prepared by spiking control rabbit plasma with appropriate calibration curve spiking solutions (SS-B). PLQC-B samples with concentrations of 0.450, 5.00, 50.0, and 80.0 ng/mL were prepared by spiking control rabbit plasma with appropriate SS-B-QC spiking solutions. PLQC-B-Dil samples at 800 ng/mL were prepared by spiking control rabbit plasma with the SS-B-QC-Dil spiking solution at 16,000 ng/mL, and then diluted 20× with control rabbit plasma prior to extraction.
1. Thaw plasma standards, plasma QC samples, ocular tissue QC samples, incurred plasma samples and ocular tissue samples (AH/VH) (if applicable) on wet ice. Control plasma can be thawed in tepid water. Vortex before taking aliquots.
2. Pipet 50 μL of water for Reagent Blank, 50 μL of control plasma for Double Blank and Blank, 50 μL of pre-spiked plasma for Standards and QC samples, 50 μL of incurred plasma samples (if applicable) into a 96 well plate.
5. Add 200 μL of working internal standard (WIS) solution to all remaining samples.
6. Seal the plate and vortex for approximately 5 minutes. Centrifuge the plate at 3500 rpm for 10 minutes at ˜4° C.
7. Transfer ˜200 μL of each sample supernatant into the appropriate wells of a 96 well plate. Submit for LC MS/MS analysis.
A total of 25 rabbits were used for this study, including 19 treated rabbits and 6 control rabbits. […]

[2] = Day 1, Compound 18 0.8 mg/kg ocular instillation, Mean, n=4
[3] = Day 1, Compound 18 0.8 mg/kg ocular instillation, animal 207664
[4] = Day 1, Compound 18 0.8 mg/kg ocular instillation, animal 207665
[5] = Day 1, Compound 18 0.8 mg/kg ocular instillation, animal 207666
[6] = Day 1, Compound 18 0.8 mg/kg ocular instillation, animal 207667
[7] = Day 7, Compound 18 0.8 mg/kg ocular instillation, Mean, n=4
[8] = Day 7, Compound 18 0.8 mg/kg ocular instillation, animal 207664
[9] = Day 7, Compound 18 0.8 mg/kg ocular instillation, animal 207665
[10] = Day 7, Compound 18 0.8 mg/kg ocular instillation, animal 207666
[11] = Day 7, Compound 18 0.8 mg/kg ocular instillation, animal 207667

Sequence of human PDE-6C (P51160 whole entry): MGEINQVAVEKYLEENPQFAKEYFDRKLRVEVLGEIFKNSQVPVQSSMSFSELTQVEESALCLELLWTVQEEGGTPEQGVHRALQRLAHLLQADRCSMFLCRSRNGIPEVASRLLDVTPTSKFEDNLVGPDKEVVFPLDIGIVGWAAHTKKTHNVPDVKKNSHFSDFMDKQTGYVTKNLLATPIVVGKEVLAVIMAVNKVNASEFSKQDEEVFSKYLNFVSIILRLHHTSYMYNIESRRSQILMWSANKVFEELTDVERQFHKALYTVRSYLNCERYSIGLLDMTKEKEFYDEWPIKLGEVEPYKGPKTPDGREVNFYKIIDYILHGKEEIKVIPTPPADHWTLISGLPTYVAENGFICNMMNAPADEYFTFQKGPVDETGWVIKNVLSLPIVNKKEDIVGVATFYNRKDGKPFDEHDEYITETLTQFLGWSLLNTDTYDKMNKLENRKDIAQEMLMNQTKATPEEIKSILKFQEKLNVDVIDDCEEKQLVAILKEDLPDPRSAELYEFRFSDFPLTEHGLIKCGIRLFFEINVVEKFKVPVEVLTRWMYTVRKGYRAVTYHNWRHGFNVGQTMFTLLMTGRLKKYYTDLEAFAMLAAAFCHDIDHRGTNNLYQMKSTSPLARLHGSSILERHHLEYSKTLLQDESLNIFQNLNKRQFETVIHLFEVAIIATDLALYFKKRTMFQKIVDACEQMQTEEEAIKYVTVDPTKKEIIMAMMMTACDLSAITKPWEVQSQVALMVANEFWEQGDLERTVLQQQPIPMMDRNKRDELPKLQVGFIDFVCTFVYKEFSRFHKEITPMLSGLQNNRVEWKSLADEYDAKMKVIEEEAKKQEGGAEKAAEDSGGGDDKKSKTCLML

With `CCCc1nn(C)c2c(=O)[nH]c(-c3cc(S(=O)(=O)N4CC(CCCO)C4)ccc3OCC)nc12` [Compound 4, 5-(2-ethoxy-5-((3-(3-hydroxypropyl)azetidin-1-yl)sulfonyl)phenyl)-1-methyl-3-propyl-1,6-dihydro-7H-pyrazolo[4,3-d]pyrimidin-7-one] the IC50 (human PDE-5A1) was < 0.01 µM, the IC50 (human PDE-6C) was < 0.01 µM and the Cmax [1, 2] was 0.944 ± 0.565 ng/mL. It also gave a Tmax [1, 2] of 30 min, an AUC(0-t) [1, 2] of 1.14 ± 0.957 ng·h/mL and a Cmax [1, 3] of 0.497 ng/mL. For the same molecule, the Tmax [1, 3] was 30 min, the AUC(0-t) [1, 3] was 0.575 ng·h/mL and the Cmax [1, 4] was 0.527 ng/mL. For the same molecule, the Tmax [1, 4] was 30 min, the half-life ([1]; Day 1, Compound 18 0.8 mg/kg ocular instillation, animal 207665 (one rabbit reportable)) was 24.8 min and the AUC(0-t) [1, 4] was 0.321 ng·h/mL. For the same molecule, the Cmax [1, 5] was 1.7 ng/mL, the Tmax [1, 5] was 30 min and the AUC(0-t) [1, 5] was 2.46 ng·h/mL. The Cmax [1, 6] was 1.05 ng/mL, the Tmax [1, 6] was 30 min and the AUC(0-t) [1, 6] was 1.18 ng·h/mL. It also gave a half-life ([1]; Day 7, Compound 18 0.8 mg/kg ocular instillation, Mean, n=2) of 79.2 ± 42.1 min, a Cmax [1, 7] of 0.963 ± 0.17 ng/mL and a Tmax [1, 7] of 45 ± 17.4 min. For the same molecule, the AUC(0-t) [1, 7] was 1.71 ± 0.416 ng·h/mL, the Cmax [1, 8] was 0.851 ng/mL and the Tmax [1, 8] was 30 min. For the same molecule, the AUC(0-t) [1, 8] was 1.13 ng·h/mL, the Cmax [1, 9] was 0.938 ng/mL and the Tmax [1, 9] was 30 min. The half-life [1, 9] was 49.4 min, the AUC(0-t) [1, 9] was 1.72 ng·h/mL and the Cmax [1, 10] was 0.851 ng/mL. The Tmax [1, 10] was 60 min, the half-life [1, 10] was 109 min and the AUC(0-t) [1, 10] was 1.92 ng·h/mL. For the same molecule, the Cmax [1, 11] was 1.21 ng/mL, the Tmax [1, 11] was 60 min and the AUC(0-t) [1, 11] was 2.08 ng·h/mL. The “Day 1 Compound 4 Plasma Concentration” value ([1]; 2 h, animal 207665) was “BQL (BQL = Below lower limit of quantitation (0.0500 ng/mL for Compound 18 and 0.150 ng/mL for Compound 4))”, the “Day 1 Compound 4 Plasma Concentration” value ([1]; 4 h, animal 207664) was “BQL (BQL = Below lower limit of quantitation (0.0500 ng/mL for Compound 18 and 0.150 ng/mL for Compound 4))” and the “Day 7 Compound 4 Plasma Concentration” value ([1]; 4 h, animal 207664) was “BQL (BQL = Below lower limit of quantitation (0.0500 ng/mL for Compound 18 and 0.150 ng/mL for Compound 4))”. For the same molecule, the “Day 1 Compound 4 Plasma Concentration” value ([1]; 4 h, animal 207665) was “BQL (BQL = Below lower limit of quantitation (0.0500 ng/mL for Compound 18 and 0.150 ng/mL for Compound 4))”, the “Day 7 Compound 4 Plasma Concentration” value ([1]; 4 h, animal 207665) was “BQL (BQL = Below lower limit of quantitation (0.0500 ng/mL for Compound 18 and 0.150 ng/mL for Compound 4))” and the “Day 1 Compound 4 Plasma Concentration” value ([1]; 4 h, animal 207667) was “BQL (BQL = Below lower limit of quantitation (0.0500 ng/mL for Compound 18 and 0.150 ng/mL for Compound 4))”. The “Day 1 Compound 4 Plasma Concentration” value ([1]; 8 h, animal 207664) was “BQL (BQL = Below lower limit of quantitation (0.0500 ng/mL for Compound 18 and 0.150 ng/mL for Compound 4))”, the “Day 7 Compound 4 Plasma Concentration” value ([1]; 8 h, animal 207664) was “BQL (BQL = Below lower limit of quantitation (0.0500 ng/mL for Compound 18 and 0.150 ng/mL for Compound 4))” and the “Day 1 Compound 4 Plasma Concentration” value ([1]; 8 h, animal 207665) was “BQL (BQL = Below lower limit of quantitation (0.0500 ng/mL for Compound 18 and 0.150 ng/mL for Compound 4))”. The “Day 1 Compound 4 Plasma Concentration” value ([1]; 8 h, animal 207666) was “BQL (BQL = Below lower limit of quantitation (0.0500 ng/mL for Compound 18 and 0.150 ng/mL for Compound 4))”, the “Day 7 Compound 4 Plasma Concentration” value ([1]; 8 h, animal 207666) was “BQL (BQL = Below lower limit of quantitation (0.0500 ng/mL for Compound 18 and 0.150 ng/mL for Compound 4))” and the “Day 1 Compound 4 Plasma Concentration” value ([1]; 8 h, animal 207667) was “BQL (BQL = Below lower limit of quantitation (0.0500 ng/mL for Compound 18 and 0.150 ng/mL for Compound 4))”. For the same molecule, the “Day 7 Compound 4 Plasma Concentration” value ([1]; 8 h, animal 207667) was “BQL (BQL = Below lower limit of quantitation (0.0500 ng/mL for Compound 18 and 0.150 ng/mL for Compound 4))”, the “Day 1 Compound 4 Plasma Concentration” value ([1]; 24 h, animal 207664) was “BQL (BQL = Below lower limit of quantitation (0.0500 ng/mL for Compound 18 and 0.150 ng/mL for Compound 4))” and the “Day 7 Compound 4 Plasma Concentration” value ([1]; 24 h, animal 207664) was “BQL (BQL = Below lower limit of quantitation (0.0500 ng/mL for Compound 18 and 0.150 ng/mL for Compound 4))”. For the same molecule, the “Day 1 Compound 4 Plasma Concentration” value ([1]; 24 h, animal 207665) was “BQL (BQL = Below lower limit of quantitation (0.0500 ng/mL for Compound 18 and 0.150 ng/mL for Compound 4))”, the “Day 7 Compound 4 Plasma Concentration” value ([1]; 24 h, animal 207665) was “BQL (BQL = Below lower limit of quantitation (0.0500 ng/mL for Compound 18 and 0.150 ng/mL for Compound 4))” and the “Day 1 Compound 4 Plasma Concentration” value ([1]; 24 h, animal 207666) was “BQL (BQL = Below lower limit of quantitation (0.0500 ng/mL for Compound 18 and 0.150 ng/mL for Compound 4))”. For the same molecule, the “Day 7 Compound 4 Plasma Concentration” value ([1]; 24 h, animal 207666) was “BQL (BQL = Below lower limit of quantitation (0.0500 ng/mL for Compound 18 and 0.150 ng/mL for Compound 4))”, the “Day 1 Compound 4 Plasma Concentration” value ([1]; 24 h, animal 207667) was “BQL (BQL = Below lower limit of quantitation (0.0500 ng/mL for Compound 18 and 0.150 ng/mL for Compound 4))” and the “Day 7 Compound 4 Plasma Concentration” value ([1]; 24 h, animal 207667) was “BQL (BQL = Below lower limit of quantitation (0.0500 ng/mL for Compound 18 and 0.150 ng/mL for Compound 4))”.
